Test results: patent publication US10975119B2, “Selective cysteine protease inhibitors and uses thereof” (Genesis Technologies Limited, priority 2011, dated 2021)
pIC50: −log10 of the molar value. Counter-ions that a name gives are not always drawn. Like-named read-outs stand apart in the source and are kept apart here.

Tests used:
Assay type in all cases: biochemical
Caspase-4 = molecular target: T1, Caspase-4 (Homo sapiens, UniProt P49662); assay: Caspase-4 inhibitor screening assay (BioVision kit, LEVD-AFC); details: for inhibition at 10 µM: read-out: % Inhibition at 10 uM Casp4; for inhibition at 100 µM: read-out: % Inhibition at 100 uM Casp4; for pIC50: read-out: IC50 Casp4
T1 construct: mixing the compounds with the respective active caspases; purchased BioVision K154-100
T1 sequence (P49662 81-270 limits assumed): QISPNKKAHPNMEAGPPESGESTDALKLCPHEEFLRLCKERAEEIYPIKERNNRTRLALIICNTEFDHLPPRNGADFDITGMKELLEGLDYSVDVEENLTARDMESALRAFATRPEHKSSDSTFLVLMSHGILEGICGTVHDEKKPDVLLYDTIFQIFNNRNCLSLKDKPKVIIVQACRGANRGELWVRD
T1 sequence (P49662 290-377 limits assumed): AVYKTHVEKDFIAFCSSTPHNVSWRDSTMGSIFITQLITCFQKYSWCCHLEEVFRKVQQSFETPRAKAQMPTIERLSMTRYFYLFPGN
Description: (§1) The efficacy of an array of compounds as an inhibitor of the activity of Caspases 1 through 10 were assessed by using the respective Caspase Inhibitor Drug Screening Kits (Caspase-1 Catalog #: K151-100, Caspase-2 Catalog #: K152-100, Caspase-3 Catalog #: K153-100, Caspase-4 Catalog #: K154-100, Caspase-5 Catalog #: K155-100, Caspase-6 Catalog #: K156-100, Caspase-7 Catalog #: K157-100, Caspase-8 Catalog #: K158-100, Caspase-9 Catalog #: K159-100, Caspase-10 Catalog #: K160-100, BioVision) following the instructions of the manufacturer. […] Active caspases cleaved their respective synthetic substrates to release free AFC, which was then quantified by fluorometry.
(§2) Briefly, the compounds were first tested at 2 concentrations (10 uM and 100 uM final) to determine if there is a hit. […] Each condition was tested in duplicates. […] For some samples, a smaller range of concentrations was tested depending on the % Inhibition results at 10 uM and 100 uM. Results were summarized in Tables 2, 3, and 4 herein after. Table 2 represents the IC50 values (uM) of the test compounds as inhibitors of the activity of the various caspases.
(§3) (*) RFU (no inhibitor control)—RFU (compound at a specific concentration)
(§4) RFU (no inhibitor control)

Caspase-2 = molecular target: T2, Caspase-2 (Homo sapiens, UniProt P42575); assay: Caspase-2 inhibitor screening assay (BioVision kit, VDVAD-AFC); details: for inhibition at 10 µM: read-out: % Inhibition at 10 uM Casp2; for inhibition at 100 µM: read-out: % Inhibition at 100 uM Casp2; for pIC50: read-out: IC50 Casp2
T2 construct: mixing the compounds with the respective active caspases; purchased BioVision K152-100
T2 sequence (P42575 170-325 limits assumed): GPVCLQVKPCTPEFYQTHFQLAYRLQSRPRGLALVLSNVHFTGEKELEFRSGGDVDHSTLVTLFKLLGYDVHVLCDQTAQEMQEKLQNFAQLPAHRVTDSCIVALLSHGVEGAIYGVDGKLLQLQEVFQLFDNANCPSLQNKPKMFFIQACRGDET
T2 sequence (P42575 334-452 limits assumed): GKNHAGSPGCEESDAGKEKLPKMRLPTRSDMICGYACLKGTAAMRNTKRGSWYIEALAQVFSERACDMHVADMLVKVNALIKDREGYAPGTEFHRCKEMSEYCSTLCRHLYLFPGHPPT
Description: as §1, §2, §3, §4

Caspase-9 = molecular target: T3, Caspase-9 (Homo sapiens, UniProt P55211); assay: Caspase-9 inhibitor screening assay (BioVision kit, LEHD-AFC); details: for inhibition at 10 µM: read-out: % Inhibition at 10 uM Casp9; for inhibition at 100 µM: read-out: % Inhibition at 100 uM Casp9
T3 construct: purchased BioVision K159-100
T3 sequence (P55211 1-315 limits assumed): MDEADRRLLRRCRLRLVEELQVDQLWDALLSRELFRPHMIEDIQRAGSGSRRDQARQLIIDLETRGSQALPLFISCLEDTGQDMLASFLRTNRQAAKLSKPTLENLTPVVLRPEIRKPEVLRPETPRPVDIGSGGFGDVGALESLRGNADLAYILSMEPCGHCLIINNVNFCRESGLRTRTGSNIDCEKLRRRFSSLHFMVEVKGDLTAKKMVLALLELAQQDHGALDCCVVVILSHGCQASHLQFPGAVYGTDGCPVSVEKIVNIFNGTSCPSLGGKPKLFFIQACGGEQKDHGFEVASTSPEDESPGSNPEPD
T3 sequence (P55211 331-416 limits assumed): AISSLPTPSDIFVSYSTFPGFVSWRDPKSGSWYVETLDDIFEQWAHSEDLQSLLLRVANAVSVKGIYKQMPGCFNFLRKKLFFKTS
Description: as §1, §2, §3, §4

Caspases 1 through 10 = assay: Caspase-1 to Caspase-10 inhibitor screening, profile across the panel
Description: as §1, §2, §3, §4

Compound | inhibition at 10 µM (Caspase-4) | inhibition at 100 µM (Caspase-4) | pIC50 (Caspase-4) | inhibition at 10 µM (Caspase-2) | inhibition at 100 µM (Caspase-2) | pIC50 (Caspase-2) | inhibition at 10 µM (Caspase-9) | inhibition at 100 µM (Caspase-9) | pIC50 (Caspase-9; read-out: IC50 Casp9) | pIC50 (Caspase-9; read-out: potency (IC50) against caspase-9) | inhibition profile across caspases, in words (Caspases 1 through 10)
CCOC(=O)/C=C/[C@@H](N)CC(=O)O [Compound 44, Asp ethyl vinyl ester tosyl salt] | 0% | 0% | < 4.00 | 0% | 3% | < 4.00 | 0% | 0% | < 4.00 | – | –
CC(C)[C@H](NC(=O)[C@@H](NC(=O)[C@H](CC(=O)O)NC(=O)OCc1ccccc1)c1ccccc1)C(=O)N[C@H](/C=C/S(C)(=O)=O)CCC(=O)O [Compound 84, Z-Asp-Phg-Val-Glu methyl vinyl sulfone] | 0% | 0% | < 4.00 | 0% | 3% | < 4.00 | 0% | 6% | < 4.00 | – | –
CCOC(=O)/C=C/[C@H](CC(=O)O)NC(=O)[C@@H](NC(=O)[C@@H](NC(=O)[C@H](CC(=O)O)NC(=O)OCc1ccccc1)c1ccccc1)C(C)C [Compound 105, Z-Asp-Phg-Val-Asp Ethyl Vinyl Ester] | 100% | 98% | 6.29 | 0% | 17% | – | 92% | 92% | 6.00 | 6.00 | high inhibitory activity towards the effector (executioner) Caspases: Caspase-3 and -7
CCOC(=O)/C=C/[C@H](CC(=O)O)NC(=O)[C@H]1CCCN1C(=O)[C@@H](NC(=O)c1ccc(N)c(Cl)c1)C(C)(C)C [Compound 116, (4-amino-3-chlorobenzene carbonyl)-t-Leu-Pro-Asp Ethyl vinyl ester] | – | – | 7.52 | – | – | < 4.00 | – | – | 6.08 | – | stronger inhibitory activity towards pro-inflammatory caspases Caspase-1 and -5
CCOC(=O)/C=C/[C@H](CC(=O)O)NC(=O)[C@H]1CCCN1C(=O)[C@@H](NC(=O)c1ccc2ccccc2n1)C(C)(C)C [Compound 118, 2-Quinoline carbonyl-t-Leu-Pro-Asp Ethyl Vinyl Ester] | 100% | 100% | 6.22 | 4% | 10% | < 4.00 | 53% | 92% | 5.05 | – | very strong inhibitory activity towards pro-inflammatory Caspases
CCOC(=O)/C=C/[C@H](CC(=O)O)NC(=O)[C@@H](NC(=O)[C@H](CCC(=O)O)NC(=O)[C@@H](NC(=O)OCc1ccccc1)C(C)C)C(C)CC (stereo partly drawn) [Compound 124, Z-Val-Glu-Ile-Asp-Ethyl Vinyl ester] | – | – | 5.90 | – | – | 5.00 | – | – | 5.12 | – | pan-caspase inhibitor
CCOC(=O)/C=C/[C@H](CC(=O)O)NC(=O)[C@@H](NC(=O)[C@H](CCC(=O)O)NC(=O)[C@@H](NC(=O)OCc1ccccc1)C(C)C)c1ccccc1 [Compound 126, Z-Val-Glu-Phg-Asp-Ethyl Vinyl ester] | – | – | 6.11 | – | – | < 4.00 | – | – | < 4.00 | – | –
